From ChEMBL document CHEMBL3739388, “Attenuation of TNF-α secretion by L-proline-based cyclic dipeptides produced by culture broth of Pseudomonas aeruginosa” (Bioorg Med Chem Lett, 2015) come the findings set out here.

≈ marks a conversion by molar mass, not a printed value.

Data set [1] can be described thus: Cytotoxicity against mouse RAW264.7 cells assessed as decrease in cell viability pretreated at 50 uM for 1 hr followed by addition of LPS incubated for 24 hrs by MTT assay. The data set is classed as cell-based. The settings on record: read-out: INH. Background: Formazan colour is commonly taken as a measure of viable cells.
Data set [2] relates to RAW264.7. Kind of data set: Inhibition of LPS-induced IL-6 mRNA level in mouse RAW264.7 cells in presence of 1 ug/ml LPS for 6 hrs by qRT-PCR analysis. The data set is classed as functional, cell-based. On the technique in general: In qPCR the cycle at which signal appears reflects the starting amount.
In data set [3] the test system is RAW264.7. As to the kind of experiment: Inhibition of LPS-induced IL-1beta mRNA level in mouse RAW264.7 cells in presence of 1 ug/ml LPS for 6 hrs by qRT-PCR analysis. Format: functional, cell-based.
Data set [4] has as its system Rattus norvegicus. Kind of data set: Inhibition of LPS-induced TNF-alpha production in albino Wistar rat plasma pretreated with compound at 50 mg/kg, po followed by administration of 0.3 mg/kg, ip LPS measured after 90 mins by ELISA. The data set is classed as functional. (In general: In an ELISA, binding on a coated surface is turned into a signal by an enzyme label.)

The subject of data set [5] is RAW264.7. As to the kind of experiment: Inhibition of LPS-induced TNF-alpha mRNA level in mouse RAW264.7 cells in presence of 1 ug/ml LPS for 6 hrs by qRT-PCR analysis. Format: functional, cell-based.
The subject of data set [6] is RAW264.7. Kind of data set: Toxicity in mouse RAW264.7 cells assessed as effect on NO production by Griess method. The data set is classed as cell-based.
In data set [7] the test system is RAW264.7. Kind of data set: Toxicity in mouse RAW264.7 cells assessed as effect on TNF-alpha mRNA level by qRT-PCR analysis. The data set is classed as cell-based.
Data set [8] concerns RAW264.7. As to the kind of experiment: Inhibition of LPS-induced TNF-alpha production in mouse RAW264.7 cells pretreated with compound at 100 uM for 1 hr followed by addition of 1 ug/ml LPS for 6 hrs by ELISA. Format: functional.
Data set [9] has as its system RAW264.7. Kind of data set: Inhibition of LPS-induced TNF-alpha production in mouse RAW264.7 cells pretreated with compound at 10 uM for 1 hr followed by addition of 1 ug/ml LPS for 6 hrs by ELISA. The data set is classed as functional.
Data set [10] relates to RAW264.7. As to the kind of experiment: Inhibition of LPS-induced TNF-alpha production in mouse RAW264.7 cells pretreated with compound for 1 hr followed by addition of 1 ug/ml LPS for 6 hrs by ELISA. The data set is classed as functional, cell-based.
Data set [11] relates to RAW264.7. Kind of data set: Inhibition of LPS-induced NO production in mouse RAW264.7 cells at 100 ug/ml cotreated with 1 ug/ml LPS for 16 hrs by Griess reagent method. Format: functional.

For `CC(C)C[C@@H]1NC(=O)[C@@H]2C[C@@H](O)CN2C1=O`, in data set [1], the cytotoxicity at 24 h, 50 µM was determined as 3%. For the same compound, the inhibition entry in data set [2], in data set [3] and in data set [5] was “Dose-dependent effect” throughout. Moreover, the “inhibition (INH)” value was determined as 51% in data set [4] and 49.3% in data set [8]. Moreover, the Activity entry in data set [6] and in data set [7] was “Non-toxic” throughout.
As to `C[C@]12C=CC(=O)C=C1CC[C@@H]1[C@@H]2[C@@H](O)C[C@@]2(C)[C@H]1CC[C@]2(O)C(=O)CO` [PREDNISOLONE], in [9], the “inhibition (INH)” value worked out at 42.8%.
For the compound `O=C1N[C@@H](Cc2ccccc2)C(=O)N2CCC[C@@H]12`, the cytotoxicity at 24 h, 50 µM in data set [1] was found to be 3%. Further, the inhibition entry in data set [2], in data set [3] and in data set [5] was “Dose-dependent effect” in each case. Also, the Activity entry in [6] and in [7] was “Non-toxic” throughout. Also, in data set [8], the “inhibition (INH)” value is given as 45%.
For `O=C1NCC(=O)N2CCC[C@@H]12` [CYCLO(PROLYLGLYCYL)], the cytotoxicity at 24 h, 50 µM in data set [1] was 3%. Further, the inhibition entry in data set [2], in [3] and in [5] was “Dose-dependent effect” throughout. Also, in [10], the half-inhibitory concentration (IC50) (usually the concentration needed to halve the response being measured) came to 4.5 µg/mL (≈ 29.2 µM). Further, the “inhibition (INH)” value in data set [11] turned out to be 39.7%. The Activity result in data set [6] and in data set [7] was “Non-toxic” each time.
As for `O=C1N[C@@H](Cc2ccccc2)C(=O)N2C[C@H](O)C[C@@H]12`, the cytotoxicity at 24 h, 50 µM in data set [1] came to 3%. For the same compound, the inhibition entry in [2], in data set [3] and in [5] was “Dose-dependent effect” each time. Further, the IC50 in [10] amounted to 14.2 µg/mL (≈ 54.6 µM). The “inhibition (INH)” value in data set [11] worked out at 43.5%. In addition, the Activity result in data set [6] and in data set [7] was “Non-toxic” in each case.
